Experimental data from patent US8785460B2, “Tricyclic compounds and use thereof” (Takeda Pharmaceutical Company Limited, priority 2008, dated 2014).

How the values were obtained:
human CRF1 receptor = molecular target: T1, human CRF1 receptor (Homo sapiens, UniProt P34998); test: Measurement of CRF Binding Inhibitory Rate (receptor binding experiment with 125I-CRF); settings: human CRF1 receptor expressing CHO cellular membrane fraction, 50 pM 125I-CRF, room temperature 1.5 hr, 0.05 nM to 10 μM of compound; read-out: IC50 values (CRF binding inhibition)
T1 construct: expressed in transfected cells; host or cells: CHO cells (membrane fraction)
T1 sequence (P34998 24-415): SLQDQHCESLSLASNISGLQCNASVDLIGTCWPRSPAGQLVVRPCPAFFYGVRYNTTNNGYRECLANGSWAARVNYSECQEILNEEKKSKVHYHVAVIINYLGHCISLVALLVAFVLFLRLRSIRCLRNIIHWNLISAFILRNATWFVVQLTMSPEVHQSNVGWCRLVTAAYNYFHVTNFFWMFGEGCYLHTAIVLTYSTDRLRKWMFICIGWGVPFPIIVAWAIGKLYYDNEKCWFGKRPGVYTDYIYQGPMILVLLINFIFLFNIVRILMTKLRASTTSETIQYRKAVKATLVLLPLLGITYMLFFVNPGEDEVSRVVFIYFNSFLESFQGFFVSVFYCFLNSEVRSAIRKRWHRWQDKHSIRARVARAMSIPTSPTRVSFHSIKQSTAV

SMILES	IC50 (human CRF1 receptor) [µM]	melting point [°C]
CCC(CC)c1ccc(Cl)c2nc3n(c12)CCCCN3c1ncc(N(C)C)cc1C [Example 66, 6-[10-Chloro-7-(1-ethylpropyl)-2,3,4,5-tetrahydro-1H-[1,3]diazepino[1,2-a]benzimidazol-1-yl]-N,N,5-trimethylpyridin-3-amine]	< 1	188 to 190
CCC(O)c1cccc2nc3n(c12)CCCCN3c1ccc(Cl)cc1Cl (stereo not shown) [Example 68, 1-[1-(2,4-Dichlorophenyl)-2,3,4,5-tetrahydro-1H-[1,3]diazepino[1,2-a]benzimidazol-7-yl]propan-1-ol]	< 1	241 to 243
CCN(CC)c1cccc2nc3n(c12)CC(O)CCN3c1ccc(Cl)cc1Cl (stereo not shown) [Example 70, 1-(2,4-Dichlorophenyl)-7-(diethylamino)-2,3,4,5-tetrahydro-1H-[1,3]diazepino[1,2-a]benzimidazol-4-ol]	< 1	207 to 208
CCN(CC)c1cccc2nc3n(c12)CC(=O)CCN3c1ccc(Cl)cc1Cl [Example 71, 1-(2,4-Dichlorophenyl)-7-(diethylamino)-2,3-dihydro-1H-[1,3]diazepino[1,2-a]benzimidazol-4(5H)-one]	< 1	169 to 170
CCN(CC)c1cccc2nc3n(c12)CC(CCO)N3c1ccc(Cl)cc1Cl (stereo not shown) [Example 74, 2-[1-(2,4-Dichlorophenyl)-5-(diethylamino)-2,3-dihydro-1H-imidazo[1,2-a]benzimidazol-2-yl]ethanol]	< 1	222 to 223
CCN(CC)c1cccc2nc3n(c12)CC(CO)N3c1ccc(Cl)cc1Cl (stereo not shown) [Example 76, [1-(2,4-Dichlorophenyl)-5-(diethylamino)-2,3-dihydro-1H-imidazo[1,2-a]benzimidazol-2-yl]methanol]	< 1	187 to 190
CCN(CC)c1cccc2nc3n(c12)CC(O)CN3c1ccc(Cl)cc1Cl (stereo not shown) [Example 77, 1-(2,4-Dichlorophenyl)-6-(diethylamino)-1,2,3,4-tetrahydropyrimido[1,2-a]benzimidazol-3-ol]	< 1	239 to 242
CCC(CC)c1ccc(Cl)c2nc3n(c12)CC(C)N3c1cnc(N(C)C)cc1C (stereo not shown) [Example 78, 5-[8-Chloro-5-(1-ethylpropyl)-2-methyl-2,3-dihydro-1H-imidazo[1,2-a]benzimidazol-1-yl]-N,N,4-trimethylpyridin-2-amine]	< 1	204 to 206
CCN(CC)c1cccc2nc3n(c12)CCCN3c1cnc(OC)nc1OC [Example 79, 1-(2,4-Dimethoxypyrimidin-5-yl)-N,N-diethyl-1,2,3,4-tetrahydropyrimido[1,2-a]benzimidazol-6-amine]	< 1	170 to 171
CCN(CC)c1cccc2nc3n(c12)CCCN3c1nnc(Cl)cc1C [Example 80, 1-(6-Chloro-4-methylpyridazin-3-yl)-N,N-diethyl-1,2,3,4-tetrahydropyrimido[1,2-a]benzimidazol-6-amine]	< 1	193 to 195
CCC(OC)c1cccc2nc3n(c12)CCCN3c1ccc(Cl)cc1Cl (stereo not shown) [Example 93, 1-(2,4-Dichlorophenyl)-6-(1-methoxypropyl)-1,2,3,4-tetrahydropyrimido[1,2-a]benzimidazole]	< 1	151 to 153
CCN(CC)c1cccc2nc3n(c12)CCCCCN3c1ccc(Cl)cc1Cl [Example 102, 1-(2,4-Dichlorophenyl)-N,N-diethyl-1,2,3,4,5,6-hexahydro[1,3]diazocino[1,2-a]benzimidazol-8-amine]	< 1	120 to 121
CC(C)(O)c1ccc(Cl)c2nc3n(c12)CCCN3c1ccc(Cl)cc1Cl [Example 106, 2-[9-Chloro-1-(2,4-dichlorophenyl)-1,2,3,4-tetrahydropyrimido[1,2-a]benzimidazol-6-yl]propan-2-ol]	< 1	216 to 218
CCC(O)(CC)c1ccc(Cl)c2nc3n(c12)CCCN3c1ccc(Cl)cc1Cl [Example 107, 3-[9-Chloro-1-(2,4-dichlorophenyl)-1,2,3,4-tetrahydropyrimido[1,2-a]benzimidazol-6-yl]pentan-3-ol]	< 1	199 to 201
OC(c1ccc(Cl)c2nc3n(c12)CCCN3c1ccc(Cl)cc1Cl)(C1CC1)C1CC1 [Example 108, [9-Chloro-1-(2,4-dichlorophenyl)-1,2,3,4-tetrahydropyrimido[1,2-a]benzimidazol-6-yl](dicyclopropyl)methanol]	< 1	184 to 186
COC(C)(C)c1ccc(Cl)c2nc3n(c12)CCCN3c1ccc(Cl)cc1Cl [Example 109, 9-Chloro-1-(2,4-dichlorophenyl)-6-(1-methoxy-1-methylethyl)-1,2,3,4-tetrahydropyrimido[1,2-a]benzimidazole]	< 1	203 to 204
CCC(CC)(OC)c1ccc(Cl)c2nc3n(c12)CCCN3c1ccc(Cl)cc1Cl [Example 110, 9-Chloro-1-(2,4-dichlorophenyl)-6-(1-ethyl-1-methoxypropyl)-1,2,3,4-tetrahydropyrimido[1,2-a]benzimidazole]	< 1	124 to 125
COC(c1ccc(Cl)c2nc3n(c12)CCCN3c1ccc(Cl)cc1Cl)(C1CC1)C1CC1 [Example 111, 9-Chloro-1-(2,4-dichlorophenyl)-6-[dicyclopropyl(methoxy)methyl]-1,2,3,4-tetrahydropyrimido[1,2-a]benzimidazole]	< 1	99 to 100
OC(c1ccc(Cl)c2nc3n(c12)CCCN3c1ccc(Cl)cc1Cl)C1CC1 (stereo not shown) [Example 113, [9-Chloro-1-(2,4-dichlorophenyl)-1,2,3,4-tetrahydropyrimido[1,2-a]benzimidazol-6-yl](cyclopropyl)methanol]	< 1	223 to 224
CCCC(O)c1ccc(Cl)c2nc3n(c12)CCCN3c1ccc(Cl)cc1Cl (stereo not shown) [Example 114, 1-[9-Chloro-1-(2,4-dichlorophenyl)-1,2,3,4-tetrahydropyrimido[1,2-a]benzimidazol-6-yl]butan-1-ol]	< 1	220 to 221
CCOC(CC)c1ccc(Cl)c2nc3n(c12)CCCN3c1ccc(Cl)cc1Cl (stereo not shown) [Example 116, 9-Chloro-1-(2,4-dichlorophenyl)-6-(1-ethoxypropyl)-1,2,3,4-tetrahydropyrimido[1,2-a]benzimidazole]	< 1	108 to 110
COC(c1ccc(Cl)c2nc3n(c12)CCCN3c1ccc(Cl)cc1Cl)C1CC1 (stereo not shown) [Example 117, 9-Chloro-6-[cyclopropyl(methoxy)methyl]-1-(2,4-dichlorophenyl)-1,2,3,4-tetrahydropyrimido[1,2-a]benzimidazole]	< 1	138 to 139
CCCC(OC)c1ccc(Cl)c2nc3n(c12)CCCN3c1ccc(Cl)cc1Cl (stereo not shown) [Example 118, 9-Chloro-1-(2,4-dichlorophenyl)-6-(1-methoxybutyl)-1,2,3,4-tetrahydropyrimido[1,2-a]benzimidazole]	< 1	139 to 140
CC/C(=N/OC)c1ccc(Cl)c2nc3n(c12)CCCN3c1ccc(Cl)cc1Cl [Example 122, (1Z)-1-[9-Chloro-1-(2,4-dichlorophenyl)-1,2,3,4-tetrahydropyrimido[1,2-a]benzimidazol-6-yl]propan-1-one O-methyloxime]	< 1	144 to 145
CCO/N=C(/CC)c1ccc(Cl)c2nc3n(c12)CCCN3c1ccc(Cl)cc1Cl [Example 124, (1Z)-1-[9-Chloro-1-(2,4-dichlorophenyl)-1,2,3,4-tetrahydropyrimido[1,2-a]benzimidazol-6-yl]propan-1-one O-ethyloxime]	< 1	140 to 141
CCC(O)(CC)c1ccc(Cl)c2nc3n(c12)CCCN3c1ccc(Cl)cc1C(F)(F)F [Example 128, 3-{9-Chloro-1-[4-chloro-2-(trifluoromethyl)phenyl]-1,2,3,4-tetrahydropyrimido[1,2-a]benzimidazol-6-yl}pentan-3-ol]	< 1	178 to 180
CCCC(O)(CCC)c1ccc(Cl)c2nc3n(c12)CCCN3c1ccc(Cl)cc1C(F)(F)F [Example 129, 4-{9-Chloro-1-[4-chloro-2-(trifluoromethyl)phenyl]-1,2,3,4-tetrahydropyrimido[1,2-a]benzimidazol-6-yl}heptan-4-ol]	< 1	200 to 202
CCC(CC)(OC)c1ccc(Cl)c2nc3n(c12)CCCN3c1ccc(Cl)cc1C(F)(F)F [Example 130, 9-Chloro-1-[4-chloro-2-(trifluoromethyl)phenyl]-6-(1-ethyl-1-methoxypropyl)-1,2,3,4-tetrahydropyrimido[1,2-a]benzimidazole]	< 1	172 to 173
CCC(O)c1ccc(Cl)c2nc3n(c12)CCCN3c1ccc(Cl)cc1C(F)(F)F (stereo not shown) [Example 131, 1-{9-Chloro-1-[4-chloro-2-(trifluoromethyl)phenyl]-1,2,3,4-tetrahydropyrimido[1,2-a]benzimidazol-6-yl}propan-1-ol]	< 1	220 to 222
